Results: US20140155384A1, “COMPOUNDS AND METHODS OF TREATING DIABETES” (Medivation Technologies, Inc., priority 2011, published 2014)

Columns and labels:
[1] = target: T1, rat adrenergic α1B receptor (Rattus norvegicus, UniProt P15823); test: Radioligand binding, adrenergic α1B receptor ([3H]Prazosin); conditions: 0.1 μM compound, Wistar rat liver, read-out: Percentage inhibition of ligand binding, Adrenergic α1B
T1 construct: rat adrenergic α1B receptor obtained from Wistar Rat liver; from tissue; host or cells: Wistar rat liver
T1 sequence (P15823 1-515): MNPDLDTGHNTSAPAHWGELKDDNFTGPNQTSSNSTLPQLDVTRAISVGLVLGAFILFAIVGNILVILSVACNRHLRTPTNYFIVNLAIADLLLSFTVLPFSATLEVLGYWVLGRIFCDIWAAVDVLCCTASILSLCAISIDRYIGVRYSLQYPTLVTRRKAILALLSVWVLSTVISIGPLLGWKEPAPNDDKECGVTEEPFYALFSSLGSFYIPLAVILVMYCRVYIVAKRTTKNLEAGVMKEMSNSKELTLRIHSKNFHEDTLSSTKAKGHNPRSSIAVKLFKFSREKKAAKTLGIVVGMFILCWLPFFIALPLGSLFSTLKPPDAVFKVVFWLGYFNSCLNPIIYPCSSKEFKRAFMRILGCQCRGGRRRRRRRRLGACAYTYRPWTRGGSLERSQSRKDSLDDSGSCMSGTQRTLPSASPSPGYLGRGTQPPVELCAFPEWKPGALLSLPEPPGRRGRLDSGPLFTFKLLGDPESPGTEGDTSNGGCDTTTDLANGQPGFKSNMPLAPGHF
Procedure: To evaluate in radioligand binding assays the activity of compounds, rat adrenergic α1B receptor obtained from Wistar Rat liver (Garcia-S' ainz, J. et al, Biochem. Biophys. Res. Commun. 186:760, 1992; Michel, A. et al, Br. J. Pharmacol. 98:883, 1989) in a modified Tris-HCl buffer (50 mM Tris-HCl buffer, pH 7.4, 0.5 mM EDTA) was used. Compounds were incubated with 0.25 nM [^3H]Prazosin for 60 min at […]. Non-specific binding was estimated in the presence of 10 μM phentolamine. Receptor proteins were filtered and washed, the filters were then counted to determine [^3H]Prazosin specifically bound. Compounds were screened at 1 μM or lower, using 1% DMSO as vehicle. Compounds were tested in this biochemical assay and percent inhibition of specific binding was determined. Biochemical assay results are presented as the percent inhibition of specific binding in Table 2.

[2] = target: T2, human recombinant adrenergic α1D receptor (Homo sapiens, UniProt P25100); test: Radioligand binding, adrenergic α1D receptor ([3H]Prazosin); conditions: 0.1 μM compound; HEK-293 cells; 0.6 nM [3H]Prazosin; read-out: Percentage inhibition of ligand binding, Adrenergic α1D
T2 construct: expressed in transfected cells; host or cells: HEK-293
T2 sequence (P25100 1-572): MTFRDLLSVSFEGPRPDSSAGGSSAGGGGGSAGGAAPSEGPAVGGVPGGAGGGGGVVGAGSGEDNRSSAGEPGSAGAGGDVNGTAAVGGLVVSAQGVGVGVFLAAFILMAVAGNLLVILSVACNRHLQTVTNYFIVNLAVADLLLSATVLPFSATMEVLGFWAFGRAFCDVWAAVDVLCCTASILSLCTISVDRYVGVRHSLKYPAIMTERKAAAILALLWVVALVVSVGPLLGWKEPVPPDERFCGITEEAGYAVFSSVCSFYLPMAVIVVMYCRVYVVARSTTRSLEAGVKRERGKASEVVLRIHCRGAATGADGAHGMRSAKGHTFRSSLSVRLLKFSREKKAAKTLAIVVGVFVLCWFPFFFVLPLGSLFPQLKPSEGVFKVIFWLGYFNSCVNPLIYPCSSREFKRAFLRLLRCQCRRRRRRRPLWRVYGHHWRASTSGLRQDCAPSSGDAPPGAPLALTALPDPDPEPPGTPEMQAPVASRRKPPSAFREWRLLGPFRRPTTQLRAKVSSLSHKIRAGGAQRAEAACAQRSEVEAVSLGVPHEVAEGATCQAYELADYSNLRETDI
Procedure: Compounds were incubated with 0.6 nM [3H]Prazosin for 60 min at 25° C. Non-specific binding was estimated in the presence of 10 μM phentolamine. Receptor proteins were filtered and washed, the filters were then counted to determine [3H]Prazosin specifically bound. Compounds were screened at 1 μM or lower, using 1% DMSO as vehicle. Biochemical assay results are presented as the percent inhibition of specific binding in Table 2.

[3] = target: T3, human recombinant adrenergic α2A receptor (Homo sapiens, UniProt P08913); test: Radioligand binding, adrenergic α2A receptor ([3H]MK-912); conditions: 0.1 μM compound; Sf9 cells; 1 nM [3H]MK-912; read-out: Percentage inhibition of ligand binding, Adrenergic α2A
T3 construct: expressed in transfected cells; host or cells: insect Sf9 cells
T3 sequence (P08913 1-465): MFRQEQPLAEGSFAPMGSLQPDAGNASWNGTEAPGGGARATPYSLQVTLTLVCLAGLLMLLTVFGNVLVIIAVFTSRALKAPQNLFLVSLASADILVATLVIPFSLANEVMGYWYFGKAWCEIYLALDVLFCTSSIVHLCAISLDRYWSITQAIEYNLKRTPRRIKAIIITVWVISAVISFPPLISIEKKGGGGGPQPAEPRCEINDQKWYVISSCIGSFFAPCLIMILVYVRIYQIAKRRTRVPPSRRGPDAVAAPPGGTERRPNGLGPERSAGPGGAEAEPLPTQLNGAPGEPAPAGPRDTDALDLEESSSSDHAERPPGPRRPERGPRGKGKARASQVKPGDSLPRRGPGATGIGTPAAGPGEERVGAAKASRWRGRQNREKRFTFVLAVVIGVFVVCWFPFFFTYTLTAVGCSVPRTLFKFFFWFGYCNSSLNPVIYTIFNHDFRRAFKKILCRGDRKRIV
Procedure: To evaluate in radioligand binding assays the activity of compounds, human recombinant adrenergic α2A receptor expressed in insect Sf9 cells (Uhlen, S. et al, J. Pharmacol. Exp. Ther. 271:1558, 1994) in a modified Tris-HCl buffer (50 mM Tris-HCl, pH 7.4, 12.5 mM MgCl2, 2 mM EDTA) was used. Compounds were incubated with 1 nM [^3H]MK-912 for 60 min at 25° C. MK912 is (2S-trans)-1,3,4,5′,6,6′,7,12b-octahydro-1′,3′-dimethyl-spiro[2H-benzofuro[2,3-a]quinolizine-2,4′(1′H)-pyrimidin]-2′(3′H)-one hydrochloride Non-specific binding was estimated in the presence of 10 μM WB-4101 (2-(2,6-Dimethoxyphenoxyethyl)aminoethyl-1,4-benzodioxane hydrochloride). Receptor proteins were filtered and washed, the filters were then counted to determine [^3H]MK-912 specifically bound. Compounds were screened at 1 μM or lower, using 1% DMSO as vehicle. Compounds were tested in this biochemical assay and percent inhibition of specific binding was determined. Biochemical assay results are presented as the percent inhibition of specific binding in Table 2.

[4] = target: T4, human recombinant adrenergic α2B receptor (Homo sapiens, UniProt P18089); test: Radioligand binding, adrenergic α2B receptor ([3H]Rauwolscine); conditions: 0.1 μM compound, CHO-K1 cells, read-out: Percentage inhibition of ligand binding, Adrenergic α2B
T4 construct: expressed in transfected cells; host or cells: CHO-K1
T4 sequence (P18089 1-450): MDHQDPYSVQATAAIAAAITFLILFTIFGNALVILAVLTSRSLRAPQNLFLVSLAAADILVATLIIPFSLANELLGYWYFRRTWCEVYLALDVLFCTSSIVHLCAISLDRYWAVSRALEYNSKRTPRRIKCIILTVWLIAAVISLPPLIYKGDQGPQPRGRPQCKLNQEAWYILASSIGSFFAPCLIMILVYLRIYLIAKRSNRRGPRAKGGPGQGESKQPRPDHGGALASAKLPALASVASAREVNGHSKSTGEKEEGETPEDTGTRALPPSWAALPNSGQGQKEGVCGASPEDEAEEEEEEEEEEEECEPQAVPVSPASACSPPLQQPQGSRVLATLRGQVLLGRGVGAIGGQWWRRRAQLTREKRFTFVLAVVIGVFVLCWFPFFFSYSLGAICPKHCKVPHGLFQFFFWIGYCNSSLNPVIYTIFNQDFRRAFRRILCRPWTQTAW
Procedure: To evaluate in radioligand binding assays the activity of compounds, human recombinant adrenergic α2B receptor expressed in Chinese hamster ovary (CHO) K1 cells (Uhlen, S. et al, Eur. J. Pharmacol. 343(1):93, 1998) in a modified Tris-HCl buffer (50 mM Tris-HCl, pH 7.4, 12.5 mM MgCl2, 1 mM EDTA, 0.2% BSA) was used. Compounds were incubated with 2.5 nM [^3H]Rauwolscine for 60 min at 25° C. Non-specific binding was estimated in the presence of 10 μM Prazosin. Receptor proteins were filtered and washed, the filters were then counted to determine [^3H]Rauwolscine specifically bound. Compounds were screened at 1 μM or lower, using 1% DMSO as vehicle. Compounds were tested in this biochemical assay and percent inhibition of specific binding was determined. Biochemical assay results are presented as the percent inhibition of specific binding in Table 2.

Row | SMILES | inhibition at 0.1 µM [1] | inhibition at 0.1 µM [2] | inhibition at 0.1 µM [3] | inhibition at 0.1 µM [4]
1 | CNC(=O)c1ccc(-c2ccccc2-n2c3c(c4cc(C)ccc42)CN(C)CC3)cc1 [Compound No. 72, 2′-(2,8-dimethyl-3,4-dihydro-1H-pyrido[4,3-b]indol-5(2H)-yl)-N-methylbiphenyl-4-carboxamide] | 28% | 56% | 3% | 17%
2 | Cc1ccc2c(c1)c1c(n2-c2cccc(-c3ccc4c(ccn4C)c3)c2)CCN(C)C1 [Compound 53, 2,8-dimethyl-5-(3-(1-methyl-1H-indol-5-yl)phenyl)-2,3,4,5-tetrahydro-1H-pyrido[4,3-b]indole] | 8% | 0% | 24% | 15%
3 | Cc1ccc2c(c1)c1c(n2-c2cccs2)CCN(C)C1 [Compound 16, 2,8-dimethyl-5-thiophen-2-yl-2,3,4,5-tetrahydro-1H-pyrido[4,3-b]indole] | 8% | 16% | -1% | 16%
4 | Cc1ccc2c(c1)c1c(n2-c2ccc(-c3cccnc3)cn2)CCN(C)C1 [Compound No. 133, 5-(3,3′-bipyridin-6-yl)-2,8-dimethyl-2,3,4,5-tetrahydro-1H-pyrido[4,3-b]indole] | 63% | 53% | 31% | 77%
5 | CNC(=O)c1cc(-n2c3c(c4cc(C)ccc42)CN(C)CC3)cs1 [Compound No. 78] | 8% | 21% | 63% | 86%
6 | Cc1ccc2c(c1)c1c(n2-c2cscc2-c2ccnn2C)CCN(C)C1 [Compound No. 150] | 72% | 73% | 55% | 77%
7 | Cc1ccc2c(c1)c1c(n2-c2cscc2-c2cnn(C)c2)CCN(C)C1 [Compound 30] | 32% | 17% | 42% | 86%
8 | Cc1ccc2c(c1)c1c(n2-c2cccc(-c3ccc(F)nc3)c2)CCN(C)C1 [Compound 44, 5-(3-(6-fluoropyridin-3-yl)phenyl)-2,8-dimethyl-2,3,4,5-tetrahydro-1H-pyrido[4,3-b]indole] | 0% | 2% | 29% | 12%
9 | Cc1ccc2c(c1)c1c(n2-c2ccc(-c3ccc(S(N)(=O)=O)cc3)cn2)CCN(C)C1 [Compound No. 145, 4-(6-(2,8-dimethyl-3,4-dihydro-1H-pyrido[4,3-b]indol-5(2H)-yl)pyridin-3-yl)benzenesulfonamide] | 86% | 73% | 71% | 83%
10 | CC(=O)Nc1ccc(-c2ccccc2-n2c3c(c4cc(C)ccc42)CN(C)CC3)cn1 [Compound No. 83, N-(5-(2-(2,8-dimethyl-3,4-dihydro-1H-pyrido[4,3-b]indol-5(2H)-yl)phenyl)pyridin-2-yl)acetamide] | 18% | 64% | 20% | 71%
11 | Cc1ccc2c(c1)c1c(n2-c2ccccc2-c2ccncc2)CCN(C)C1 [Compound 5, 2,8-dimethyl-5-(2-pyridin-4-yl-phenyl)-2,3,4,5-tetrahydro-1H-pyrido[4,3-b]indole] | 52% | 45% | 26% | 78%
12 | Cc1ccc2c(c1)c1c(n2-c2ccc3cnccc3c2)CCN(C)C1 [Compound 38] | 31% | 32% | 32% | 57%
13 | Cc1ccc2c(c1)c1c(n2-c2ccc(-c3cncc4ccccc34)cn2)CCN(C)C1 [Compound No. 135, 5-(5-(isoquinolin-4-yl)pyridin-2-yl)-2,8-dimethyl-2,3,4,5-tetrahydro-1H-pyrido[4,3-b]indole] | 59% | 64% | 56% | 99%
